Paper PMC11645267, “Novel pharmacologic inhibition of lysine-specific demethylase 1 as a potential therapeutic for glioblastoma” (Cancer Gene Therapy, 2024)

Key:
GSC1228 cells = assay: ChIP-seq analysis of histone modifications; assay type: cell-based, human; details: GSC1228, 5 μM, versus DMSO
Method: Cells (1 × 10^6) were treated with 1% formaldehyde for 8 min to crosslink histones to DNA. After washing with cold PBS, cell pellets were lysed with lysis buffer (10 mM Tris-HCl, 0.25% Triton X-100, 10 mM EDTA, and 0.1 M NaCl). Cell nuclei were collected after centrifugation and re-suspended in SDS lysis buffer (1% SDS, 150 mM NaCl, 50 mM HEPES-KOH, 2 mM EDTA, 1% Triton X-100, and 0.1% sodium deoxycholate). Chromatin was sonicated using Covaris S220 (Covaris, Moburn, MA, USA). Lysates were incubated overnight with 50 μL of Dynabeads Protein G (Thermo Fisher Scientific) which were pre-coated with 4 μL of anti-H3K4me1 antibody (ab8895, Abcam, Cambridge, UK), 3 μL of anti-H3K4me2 antibody (#39141, Active Motif), 2.5 μL of anti-H3K4me3 antibody (#39159, Active Motif), 4 μL of anti-H3K9me2 antibody (ab1220, Abcam). The beads were washed and protein-DNA complexes were eluted with elution buffer (1% SDS, 10 mM EDTA, and 50 mM Tris-HCl) and then treated with RNase for 2 h at 37°C followed by proteinase K treatment overnight. DNA was extracted by the phenol/chloroform method, ethanol-precipitated and re-suspended in 0.1 × TE buffer. 10% of the lysate was treated with RNase and proteinase K and de-crosslinked as input samples.
ChIP DNA (n = 2 for each antibody in each condition) was used to make sequence libraries using NEBNext Ultra II DNA library Prep kit for the Illumina (New England Biolabs, Ipswich, MA, USA). Library quality was checked using the Agilent Bioanalyzer 2100 (Agilent Technologies, Santa Clara, CA, USA) and then libraries were run on an Illumina Hiseq XTen (Illumina, San Diego, CA, USA).
ChIP-seq clean reads were obtained from raw reads by the removal of adaptors and low-quality reads. The clean reads were aligned to the human genome (hg38) using Bowtie2 (version 2.4.2). The levels of histone modification at gene promoters were estimated by counting the numbers of reads mapped within a 2-kb region around the transcriptional start site using MACS2 [30] and HOMER [31]. Differential analysis of peaks and generation of heatmap were performed using BEDtools v2.30.0 [32]. HOMER was used to annotate ChIP-seq peaks for genomic location and link these peaks to nearby genes. TF binding motif analysis was performed using HOMER. BEDtools was used to obtain overlap peaks with super-enhancers and H3K4me2 peaks. Furthermore, we used our deposited GSC316 H3K27ac ChIP-seq data (GSE178471) and identified super-enhancers by the Rank Ordering of Super Enhancer (ROSE) algorithm. From this analysis, we identified 672 super-enhancers.
To precisely evaluate the effects of S2172 on histone modifications at a genome-wide scale, we performed ChIP-seq analysis in GSC1228 cells treated with either DMSO or S2172. […]

LSD2 = molecular target: T1, LSD2 (Homo sapiens, UniProt Q8NB78); assay: Enzyme inhibition assay (in vitro peroxidase assay) against LSD2
T1 sequence (Q8NB78 1-822): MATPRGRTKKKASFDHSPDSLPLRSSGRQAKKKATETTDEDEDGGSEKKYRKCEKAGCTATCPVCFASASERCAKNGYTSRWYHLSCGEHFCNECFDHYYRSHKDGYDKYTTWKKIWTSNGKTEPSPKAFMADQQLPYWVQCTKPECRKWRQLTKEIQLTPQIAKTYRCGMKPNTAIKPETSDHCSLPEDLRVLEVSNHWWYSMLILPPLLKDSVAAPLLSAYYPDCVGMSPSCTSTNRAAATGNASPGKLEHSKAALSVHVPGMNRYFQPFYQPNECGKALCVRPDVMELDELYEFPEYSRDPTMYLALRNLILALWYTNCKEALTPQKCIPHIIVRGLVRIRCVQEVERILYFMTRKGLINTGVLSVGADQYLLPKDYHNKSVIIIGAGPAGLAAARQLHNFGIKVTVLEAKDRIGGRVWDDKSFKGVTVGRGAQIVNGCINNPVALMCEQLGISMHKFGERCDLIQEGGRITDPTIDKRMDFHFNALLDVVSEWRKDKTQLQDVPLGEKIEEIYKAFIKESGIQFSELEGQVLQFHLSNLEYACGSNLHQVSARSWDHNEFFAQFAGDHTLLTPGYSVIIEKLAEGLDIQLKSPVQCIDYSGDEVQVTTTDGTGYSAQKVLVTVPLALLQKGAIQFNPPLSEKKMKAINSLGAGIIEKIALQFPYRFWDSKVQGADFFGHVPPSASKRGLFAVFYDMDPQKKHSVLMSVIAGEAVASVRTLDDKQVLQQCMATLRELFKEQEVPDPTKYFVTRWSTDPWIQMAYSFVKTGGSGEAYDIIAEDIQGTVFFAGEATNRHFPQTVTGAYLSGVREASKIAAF
Method: Enzyme inhibition assays against LSD1, LSD2, MAO-A, and MAO-B were performed as previously described [25]. Technical replicates, n = 3.

GSC cells = assay: RNA-seq analysis of enhancer/super-enhancer related genes; assay type: cell-based, human; details: 5 μM, 96 h, relative to DMSO
Method: GSC cells treated with either DMSO (n = 4) or S2172 (5 μM, n = 4) for 96 h and total RNA was isolated with RNeasy mini kit (Qiagen). The RNA purity was determined using Agilent Tape Station (Agilent Technologies). Illumina TruSeq RNA sample preparation was conducted and the samples were run on an Illumina Hiseq XTen (Illumina). RNA-seq was aligned using HISAT2 under default setting to Homo Sapience hg38 [35]. TPM were generated using StringTie and differential expression analysis were performed using DESeq2 [37].
RNA-seq analysis was conducted to examine gene expression changes associated with super-enhancers/enhancers. Among the genes with de novo H3K4me2 modification, the average log2 fold changes (S2172 treatment relative to DMSO treatment) were −0.12 ± 0.03 for super-enhancer-related genes and −0.01 ± 0.01 for typical enhancer-related genes (P = 0.0004) (Supplementary Fig. S6B). In contrast, among the genes with increased H3K4me2 modification, the average log2 fold changes were −0.04 ± 0.01 for super-enhancer-related genes and −0.07 ± 001 for typical enhancer-related genes (P = 0.028) (Supplementary Fig. S6C).

Ki (LSD2): > 250 µM
Inhibition of LSD2 (in words) (LSD2; in vitro peroxidase assay): not inhibited
SMILES: NC1CCC(NC2CC2c2cc(F)cc(F)c2OCc2ccccc2)CC1 (stereo not shown) [S2172]
de novo H3K4me3 regions after treatment (GSC1228 cells): 2582 regions
new H3K4me2 regions (de novo regions) after treatment (GSC1228 cells): 20,085 regions
regions already modified by H3K4me2 with increased H3K4me2 after treatment (GSC1228 cells): 25,326 regions
regions from which H3K4me2 was lost after treatment (GSC1228 cells): 5788 regions
average log2 fold change of expression, super-enhancer-related genes with de novo H3K4me2 (GSC cells): −0.12 ± 0.03
average log2 fold change of expression, super-enhancer-related genes with increased H3K4me2 (GSC cells): −0.04 ± 0.01
average log2 fold change of expression, typical enhancer-related genes with de novo H3K4me2 (GSC cells): −0.01 ± 0.01
average log2 fold change of expression, typical enhancer-related genes with increased H3K4me2 (GSC cells): −0.07 ± 001
